From US20260242419A1, “A CYCLIC PEPTIDE FOR TRAPPING INTERLEUKIN-1 BETA” (Merck Sharp & Dohme LLC, priority 2023, published 2026)
Starred links: 1 amine or outer side, 2 acyl side, 3 side chain; linkers in the order of their positions; H or OH if unused. Non-standard residues stand in square brackets, D forms with d. Residues, ends and D or L forms follow the SMILES beside them. dPro(4R-(4-pyridylmethyl)) = O=C(O)[C@H]1C[C@@H](Cc2ccncc2)CN1; Ala(piperidin-4-yl) = O=C([C@H](CC1CCN([*:3])CC1)N[*:1])[*:2]; Trp(βS-Me,4-F) = C[C@@H](c1c[nH]c2cccc(F)c12)[C@H](N)C(=O)O; Bip(4'-COOH) = N[C@@H](Cc1ccc(-c2ccc(C(=O)O)cc2)cc1)C(=O)O; Ala(1-bicyclo(1.1.1)pentyl) = N[C@@H](CC12CC(C1)C2)C(=O)O; dPro(4R-Bzl(4-F)) = O=C(O)[C@H]1C[C@@H](Cc2ccc(F)cc2)CN1; Ala(morpholin-4-yl) = N[C@@H](CN1CCOCC1)C(=O)O; Ala(piperazin-1-yl) = N[C@@H](CN1CCNCC1)C(=O)O; Ala(pyrimidin-5-yl) = N[C@@H](Cc1cncnc1)C(=O)O; Phe(4-COOH) = N[C@@H](Cc1ccc(C(=O)O)cc1)C(=O)O; Pro(cis-4-F) = O=C(O)[C@@H]1C[C@H](F)CN1; cisHyp = O=C(O)[C@@H]1C[C@H](O)CN1; d(αMeD) = C[C@@](N)(CC(=O)O)C(=O)O; 4Pal = N[C@@H](Cc1ccncc1)C(=O)O; d(αMeS) = C[C@@](N)(CO)C(=O)O; Cba = N[C@@H](CC1CCC1)C(=O)O; αMeK = C[C@](N)(CCCCN)C(=O)O; Dab = NCC[C@H](N)C(=O)O; Aib = CC(C)(N)C(=O)O

The compounds below were run against T1, IL-1β (Homo sapiens, UniProt P01584) (assay: IL-6 assay in MRC5 cells: inhibition of IL-1β induced IL-6 secretion (AlphaLISA)). Settings: inhibition of IL-1β induced IL-6 secretion in MRC5 cells; read-out: MRC5 IC50.
T1 construct: purchased BioLegend 579404
T1 sequence (P01584 117-269): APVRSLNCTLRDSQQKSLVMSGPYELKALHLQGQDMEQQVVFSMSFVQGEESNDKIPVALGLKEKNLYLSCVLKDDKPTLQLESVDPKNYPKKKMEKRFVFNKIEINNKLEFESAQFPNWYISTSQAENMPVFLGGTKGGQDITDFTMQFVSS
Format: cell-based
Outline: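 Compound was pre-incubated 1 h at ambient temperature with recombinant human IL-1β at 2λ EC80 before adding human lung fibroblast MRC5 cells (3000/well) in EMEM with 0.025% BSA. After overnight culture at 37 °C, 5% CO2, secreted IL-6 in conditioned medium was measured by AlphaLISA; IC50 from 4-parameter logistic fits.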

Which IC50 does the source give for C[C@@H](c1c[nH]c2cccc(F)c12)[C@@H]1NC(=O)[C@@H]2C[C@H](O)CN2C(=O)CNC(=O)[C@H](Cc2ccc(C(=O)O)cc2)NC(=O)[C@H](Cc2ccncc2)NC(=O)[C@H](Cc2ccc(-c3ccc(C(=O)O)cc3)cc2)NC(=O)[C@H]2C[C@@H](Cc3ccncc3)CN2C(=O)CNC(=O)[C@H](CO)NC(=O)[C@H](CCC(N)=O)NC(=O)[C@H](Cc2cncnc2)NC(=O)[C@@](C)(CC(=O)O)NC(=O)[C@H](Cc2c[nH]c3ccccc23)NC(=O)[C@H](CO)NC(=O)C(C)(C)NC1=O [Example 161] (cyclo([Bip(4'-COOH)][4Pal][Phe(4-COOH)]G[cisHyp][Trp(βS-Me,4-F)][Aib]SW[d(αMeD)][Ala(pyrimidin-5-yl)]QSG[dPro(4R-(4-pyridylmethyl))])) here?
The IC50 was 0.019 nM.

Which IC50 does the source give for C[C@@H](c1c[nH]c2cccc(F)c12)[C@@H]1NC(=O)[C@@H]2C[C@H](F)CN2C(=O)CNC(=O)[C@H](Cc2ccc(C(=O)O)cc2)NC(=O)[C@H](CC2CCC2)NC(=O)[C@H](Cc2ccc(-c3ccc(C(=O)O)cc3)cc2)NC(=O)[C@H]2C[C@@H](Cc3ccncc3)CN2C(=O)CNC(=O)[C@H](CCN)NC(=O)[C@H](CCC(N)=O)NC(=O)[C@H](Cc2cncnc2)NC(=O)C(C)(C)NC(=O)[C@H](Cc2c[nH]c3ccccc23)NC(=O)[C@H](CO)NC(=O)C(C)(C)NC1=O [Example 163] (cyclo([Bip(4'-COOH)][Cba][Phe(4-COOH)]G[Pro(cis-4-F)][Trp(βS-Me,4-F)][Aib]SW[Aib][Ala(pyrimidin-5-yl)]Q[Dab]G[dPro(4R-(4-pyridylmethyl))])) here?
The IC50 was 0.03 nM.

How did the IC50 turn out when C[C@@H](c1c[nH]c2cccc(F)c12)[C@@H]1NC(=O)[C@@H]2C[C@H](O)CN2C(=O)CNC(=O)[C@H](Cc2ccc(C(=O)O)cc2)NC(=O)[C@H](CC2CCC2)NC(=O)[C@H](Cc2ccc(-c3ccc(C(=O)O)cc3)cc2)NC(=O)[C@H]2C[C@@H](Cc3ccncc3)CN2C(=O)CNC(=O)[C@H](CCN)NC(=O)[C@H](CCC(N)=O)NC(=O)[C@H](Cc2cncnc2)NC(=O)[C@@](C)(CC(=O)O)NC(=O)[C@H](Cc2c[nH]c3ccccc23)NC(=O)[C@H](CO)NC(=O)C(C)(C)NC1=O [Example 164] (cyclo([Bip(4'-COOH)][Cba][Phe(4-COOH)]G[cisHyp][Trp(βS-Me,4-F)][Aib]SW[d(αMeD)][Ala(pyrimidin-5-yl)]Q[Dab]G[dPro(4R-(4-pyridylmethyl))])) was run?
Its IC50 is 0.039 nM.

Which IC50 does the source give for C[C@@H](c1c[nH]c2cccc(F)c12)[C@@H]1NC(=O)[C@@H]2C[C@H](F)CN2C(=O)CNC(=O)[C@H](Cc2ccc(C(=O)O)cc2)NC(=O)[C@H](CC23CC(C2)C3)NC(=O)[C@H](Cc2ccc(-c3ccc(C(=O)O)cc3)cc2)NC(=O)[C@H]2C[C@@H](Cc3ccc(F)cc3)CN2C(=O)CNC(=O)[C@H](CCN)NC(=O)[C@H](CCC(N)=O)NC(=O)[C@H](CN2CCOCC2)NC(=O)[C@](C)(CCCCN)NC(=O)[C@H](Cc2c[nH]c3ccccc23)NC(=O)[C@H](CCC(=O)O)NC(=O)C(C)(C)NC1=O [Example 165] (cyclo([Bip(4'-COOH)][Ala(1-bicyclo(1.1.1)pentyl)][Phe(4-COOH)]G[Pro(cis-4-F)][Trp(βS-Me,4-F)][Aib]EW[αMeK][Ala(morpholin-4-yl)]Q[Dab]G[dPro(4R-Bzl(4-F))])) here?
The IC50 was 0.022 nM.

C[C@@H](c1c[nH]c2cccc(F)c12)[C@@H]1NC(=O)[C@@H]2C[C@H](F)CN2C(=O)CNC(=O)[C@H](Cc2ccc(C(=O)O)cc2)NC(=O)[C@H](CC23CC(C2)C3)NC(=O)[C@H](Cc2ccc(-c3ccc(C(=O)O)cc3)cc2)NC(=O)[C@H]2C[C@@H](Cc3ccc(F)cc3)CN2C(=O)CNC(=O)[C@H](CCN)NC(=O)[C@H](CCC(N)=O)NC(=O)[C@H](CC2CCNCC2)NC(=O)[C@](C)(CCCCN)NC(=O)[C@H](Cc2c[nH]c3ccccc23)NC(=O)[C@H](CCC(=O)O)NC(=O)C(C)(C)NC1=O [Example 166] (cyclo([Bip(4'-COOH)][Ala(1-bicyclo(1.1.1)pentyl)][Phe(4-COOH)]G[Pro(cis-4-F)][Trp(βS-Me,4-F)][Aib]EW[αMeK][Ala(piperidin-4-yl)]Q[Dab]G[dPro(4R-Bzl(4-F))])) was tested. Which IC50 did it give?
Its IC50 is 0.039 nM.

For C[C@@H](c1c[nH]c2cccc(F)c12)[C@@H]1NC(=O)[C@@H]2C[C@H](F)CN2C(=O)CNC(=O)[C@H](Cc2ccc(C(=O)O)cc2)NC(=O)[C@H](CC23CC(C2)C3)NC(=O)[C@H](Cc2ccc(-c3ccc(C(=O)O)cc3)cc2)NC(=O)[C@H]2C[C@@H](Cc3ccc(F)cc3)CN2C(=O)CNC(=O)[C@H](CCN)NC(=O)[C@H](CCC(N)=O)NC(=O)[C@H](CN2CCOCC2)NC(=O)C(C)(C)NC(=O)[C@H](Cc2c[nH]c3ccccc23)NC(=O)[C@H](CO)NC(=O)C(C)(C)NC1=O [Example 167] (cyclo([Bip(4'-COOH)][Ala(1-bicyclo(1.1.1)pentyl)][Phe(4-COOH)]G[Pro(cis-4-F)][Trp(βS-Me,4-F)][Aib]SW[Aib][Ala(morpholin-4-yl)]Q[Dab]G[dPro(4R-Bzl(4-F))])), which IC50 is on record?
Its IC50 is 0.013 nM.

With C[C@@H](c1c[nH]c2cccc(F)c12)[C@@H]1NC(=O)[C@@H]2C[C@H](F)CN2C(=O)CNC(=O)[C@H](Cc2ccc(C(=O)O)cc2)NC(=O)[C@H](CC23CC(C2)C3)NC(=O)[C@H](Cc2ccc(-c3ccc(C(=O)O)cc3)cc2)NC(=O)[C@H]2C[C@@H](Cc3ccc(F)cc3)CN2C(=O)CNC(=O)[C@H](CCN)NC(=O)[C@H](CCC(N)=O)NC(=O)[C@H](CN2CCNCC2)NC(=O)C(C)(C)NC(=O)[C@H](Cc2c[nH]c3ccccc23)NC(=O)[C@H](CO)NC(=O)C(C)(C)NC1=O [Example 168] (cyclo([Bip(4'-COOH)][Ala(1-bicyclo(1.1.1)pentyl)][Phe(4-COOH)]G[Pro(cis-4-F)][Trp(βS-Me,4-F)][Aib]SW[Aib][Ala(piperazin-1-yl)]Q[Dab]G[dPro(4R-Bzl(4-F))])) as the compound, how does the IC50 read?
The IC50 was 0.018 nM.

C[C@@H](c1c[nH]c2cccc(F)c12)[C@@H]1NC(=O)[C@@H]2C[C@H](F)CN2C(=O)CNC(=O)[C@H](Cc2ccc(C(=O)O)cc2)NC(=O)[C@H](CC23CC(C2)C3)NC(=O)[C@H](Cc2ccc(-c3ccc(C(=O)O)cc3)cc2)NC(=O)[C@H]2C[C@@H](Cc3ccc(F)cc3)CN2C(=O)CNC(=O)[C@H](CCN)NC(=O)[C@H](CCC(N)=O)NC(=O)[C@H](CC2CCNCC2)NC(=O)C(C)(C)NC(=O)[C@H](Cc2c[nH]c3ccccc23)NC(=O)[C@H](CO)NC(=O)C(C)(C)NC1=O [Example 169] (cyclo([Bip(4'-COOH)][Ala(1-bicyclo(1.1.1)pentyl)][Phe(4-COOH)]G[Pro(cis-4-F)][Trp(βS-Me,4-F)][Aib]SW[Aib][Ala(piperidin-4-yl)]Q[Dab]G[dPro(4R-Bzl(4-F))])) was tested. Which IC50 did it give?
Its IC50 is 0.019 nM.

With C[C@@H](c1c[nH]c2cccc(F)c12)[C@@H]1NC(=O)[C@@H]2C[C@H](F)CN2C(=O)CNC(=O)[C@H](Cc2ccc(C(=O)O)cc2)NC(=O)[C@H](CC23CC(C2)C3)NC(=O)[C@H](Cc2ccc(-c3ccc(C(=O)O)cc3)cc2)NC(=O)[C@H]2C[C@@H](Cc3ccc(F)cc3)CN2C(=O)CNC(=O)[C@H](CCN)NC(=O)[C@H](CCC(N)=O)NC(=O)[C@H](CN2CCOCC2)NC(=O)[C@@](C)(CO)NC(=O)[C@H](Cc2c[nH]c3ccccc23)NC(=O)[C@H](CO)NC(=O)C(C)(C)NC1=O [Example 170] (cyclo([Bip(4'-COOH)][Ala(1-bicyclo(1.1.1)pentyl)][Phe(4-COOH)]G[Pro(cis-4-F)][Trp(βS-Me,4-F)][Aib]SW[d(αMeS)][Ala(morpholin-4-yl)]Q[Dab]G[dPro(4R-Bzl(4-F))])) as the compound, how does the IC50 read?
The IC50 was 0.015 nM.

Which IC50 does the source give for C[C@@H](c1c[nH]c2cccc(F)c12)[C@@H]1NC(=O)[C@@H]2C[C@H](F)CN2C(=O)CNC(=O)[C@H](Cc2ccc(C(=O)O)cc2)NC(=O)[C@H](CC23CC(C2)C3)NC(=O)[C@H](Cc2ccc(-c3ccc(C(=O)O)cc3)cc2)NC(=O)[C@H]2C[C@@H](Cc3ccc(F)cc3)CN2C(=O)CNC(=O)[C@H](CCN)NC(=O)[C@H](CCC(N)=O)NC(=O)[C@H](CN2CCNCC2)NC(=O)[C@@](C)(CO)NC(=O)[C@H](Cc2c[nH]c3ccccc23)NC(=O)[C@H](CO)NC(=O)C(C)(C)NC1=O [Example 171] (cyclo([Bip(4'-COOH)][Ala(1-bicyclo(1.1.1)pentyl)][Phe(4-COOH)]G[Pro(cis-4-F)][Trp(βS-Me,4-F)][Aib]SW[d(αMeS)][Ala(piperazin-1-yl)]Q[Dab]G[dPro(4R-Bzl(4-F))])) here?
Its IC50 is 0.016 nM.

With C[C@@H](c1c[nH]c2cccc(F)c12)[C@@H]1NC(=O)[C@@H]2C[C@H](F)CN2C(=O)CNC(=O)[C@H](Cc2ccc(C(=O)O)cc2)NC(=O)[C@H](CC23CC(C2)C3)NC(=O)[C@H](Cc2ccc(-c3ccc(C(=O)O)cc3)cc2)NC(=O)[C@H]2C[C@@H](Cc3ccc(F)cc3)CN2C(=O)CNC(=O)[C@H](CCN)NC(=O)[C@H](CCC(N)=O)NC(=O)[C@H](CC2CCNCC2)NC(=O)[C@@](C)(CO)NC(=O)[C@H](Cc2c[nH]c3ccccc23)NC(=O)[C@H](CO)NC(=O)C(C)(C)NC1=O [Example 172] (cyclo([Bip(4'-COOH)][Ala(1-bicyclo(1.1.1)pentyl)][Phe(4-COOH)]G[Pro(cis-4-F)][Trp(βS-Me,4-F)][Aib]SW[d(αMeS)][Ala(piperidin-4-yl)]Q[Dab]G[dPro(4R-Bzl(4-F))])) as the compound, how does the IC50 read?
The IC50 was 0.016 nM.

For C[C@@H](c1c[nH]c2cccc(F)c12)[C@@H]1NC(=O)[C@@H]2C[C@H](F)CN2C(=O)CNC(=O)[C@H](Cc2ccc(C(=O)O)cc2)NC(=O)[C@H](CC23CC(C2)C3)NC(=O)[C@H](Cc2ccc(-c3ccc(C(=O)O)cc3)cc2)NC(=O)[C@H]2C[C@@H](Cc3ccc(F)cc3)CN2C(=O)CNC(=O)[C@H](CO)NC(=O)[C@H](CCC(N)=O)NC(=O)[C@H](CN2CCOCC2)NC(=O)[C@](C)(CCCCN)NC(=O)[C@H](Cc2c[nH]c3ccccc23)NC(=O)[C@H](CO)NC(=O)C(C)(C)NC1=O [Example 173] (cyclo([Bip(4'-COOH)][Ala(1-bicyclo(1.1.1)pentyl)][Phe(4-COOH)]G[Pro(cis-4-F)][Trp(βS-Me,4-F)][Aib]SW[αMeK][Ala(morpholin-4-yl)]QSG[dPro(4R-Bzl(4-F))])), which IC50 is on record?
The IC50 was 0.037 nM.
